Data: PMC8998904, “Identification and New Indication of Melanin-Concentrating Hormone Receptor 1 (MCHR1) Antagonist Derived from Machine Learning and Transcriptome-Based Drug Repositioning Approaches” (International Journal of Molecular Sciences, 2022)
Values belong to the compound of their own block, whether it stands above or below them.

Columns and labels:
[1] = molecular target: T1, human recombinant MCH-1 receptor (Homo sapiens, UniProt Q99705); test: Time-resolved fluorescence (TRF)-based MCHR1 receptor-binding assay with Eu-MCH; conditions: for inhibition at 10 µM: TRF MCHR1 binding, read-out: inhibition rate (%) at 10 μM; for IC50: TRF-based binding, 2 nM Eu-MCH
T1 construct: purchased Euroscreen S.A. (PerkinElmer)
T1 sequence (Q99705 whole entry): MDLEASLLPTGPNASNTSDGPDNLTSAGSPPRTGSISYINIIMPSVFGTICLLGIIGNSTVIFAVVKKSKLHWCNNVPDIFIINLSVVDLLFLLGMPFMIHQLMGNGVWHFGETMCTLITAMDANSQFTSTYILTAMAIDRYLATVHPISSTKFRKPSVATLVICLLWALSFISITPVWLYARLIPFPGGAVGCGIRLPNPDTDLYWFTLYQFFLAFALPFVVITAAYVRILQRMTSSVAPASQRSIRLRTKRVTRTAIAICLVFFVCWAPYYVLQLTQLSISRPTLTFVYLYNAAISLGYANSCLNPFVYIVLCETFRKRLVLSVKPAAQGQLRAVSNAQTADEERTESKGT
Protocol: (§1) An in vitro time-resolved fluorescence (TRF)-based binding assay for MCHR1 was performed to identify the MCHR1 antagonist from the 19 predicted compounds selected through in silico screening. […] In addition, a patch clamp assay was performed to measure the cardiotoxicity of the five compounds. […] Consequently, of the five compounds, only KRX-104130 and KRX-104165 overcame cardiotoxicity.
The receptor-binding affinities of the generated 19 compounds were determined by time-resolved fluorescence (TRF)-based receptor-binding assays using europium-labeled MCH (Eu-MCH) in 96-well AcroWell™ plates. The MCH labeled with europium at the N-1 position was supplied by the Wallac Labeling Service (PerkinElmer, Inc., Waltham, MA, USA). The human recombinant MCH-1 receptor membrane preparation (MCH-1/SLC1 membrane) was obtained from Euroscreen S.A. (PerkinElmer). The binding assay buffer contained 25 mM 4-(2-hydroxyethyl)-1-piperazineethanesulfonic acid (HEPES; pH 7.4), 5 mM MgCl2, 1 mM CaCl2, and 0.5% bovine serum albumin. Total binding was determined from the binding reaction in the presence of 2 nM Eu-MCH and 5 μg/unit MCH-1 receptor membrane for 90 min. Nonspecific Eu–MCH binding was defined in the presence of 0.5 µM unlabeled MCH. After incubation for 90 min, the plate was washed three times with 300 µL of ice-cold 25 mM HEPES buffer (pH 7.4) in an automatic vacuum filtration system. The Eu was dissociated from the bound ligand by the addition of 150 µL of DELFIA enhancement solution (Perkin Elmer) and incubated for 10 min with shaking. Fluorescence signals from dissociated Eu were measured using a multilabel reader (Envision, PerkinElmer) with an excitation wavelength (340 nm) and an emission wavelength (615 nm).

hERG channel = molecular target: T2, hERG channel (Homo sapiens, UniProt Q12809); test: Patch clamp assay on HEK293-hERG cells; format: cell-based
T2 construct: host or cells: HEK293
T2 sequence (Q12809 whole entry): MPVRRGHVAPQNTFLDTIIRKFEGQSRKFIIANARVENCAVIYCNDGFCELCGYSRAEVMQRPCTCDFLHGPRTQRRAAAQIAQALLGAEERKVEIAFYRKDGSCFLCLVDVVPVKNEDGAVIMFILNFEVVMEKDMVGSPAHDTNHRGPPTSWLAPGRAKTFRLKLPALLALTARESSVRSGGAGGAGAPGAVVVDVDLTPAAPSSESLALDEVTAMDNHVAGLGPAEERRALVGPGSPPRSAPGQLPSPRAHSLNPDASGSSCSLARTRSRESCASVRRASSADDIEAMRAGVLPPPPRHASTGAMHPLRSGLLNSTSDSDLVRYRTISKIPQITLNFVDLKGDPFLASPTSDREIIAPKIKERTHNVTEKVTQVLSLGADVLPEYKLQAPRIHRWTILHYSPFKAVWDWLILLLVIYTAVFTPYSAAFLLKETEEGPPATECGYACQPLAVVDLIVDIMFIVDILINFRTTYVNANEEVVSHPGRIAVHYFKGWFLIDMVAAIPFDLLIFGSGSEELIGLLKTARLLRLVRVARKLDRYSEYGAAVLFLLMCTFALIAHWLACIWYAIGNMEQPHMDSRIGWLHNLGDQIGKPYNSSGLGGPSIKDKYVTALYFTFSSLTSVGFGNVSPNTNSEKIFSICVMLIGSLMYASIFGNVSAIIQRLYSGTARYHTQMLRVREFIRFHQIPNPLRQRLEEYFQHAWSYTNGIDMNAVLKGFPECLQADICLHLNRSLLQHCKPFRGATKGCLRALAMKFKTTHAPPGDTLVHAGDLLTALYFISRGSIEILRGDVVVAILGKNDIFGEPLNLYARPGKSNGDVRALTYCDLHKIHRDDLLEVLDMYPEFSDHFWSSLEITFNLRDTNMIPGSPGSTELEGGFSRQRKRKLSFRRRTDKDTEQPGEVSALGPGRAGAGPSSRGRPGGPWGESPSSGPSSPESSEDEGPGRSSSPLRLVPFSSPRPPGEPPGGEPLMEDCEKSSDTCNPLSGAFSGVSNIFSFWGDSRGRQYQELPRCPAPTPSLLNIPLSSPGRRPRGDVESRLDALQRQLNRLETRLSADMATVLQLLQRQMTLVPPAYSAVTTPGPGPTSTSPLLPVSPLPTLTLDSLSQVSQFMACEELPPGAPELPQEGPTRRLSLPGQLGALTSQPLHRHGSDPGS
Protocol: as §1
Patch clamp assays were performed on HEK293 cells stably expressing the hERG channel (HEK293-hERG cells; Genionics, Switzerland). When the cells were more than 80% confluent, they were freshly dislodged from flasks with 0.05% trypsin–EDTA for 1–2 min, spun down twice at 700× g, suspended into the extracellular solution (in mmol/L at 1.8 × 10^6 per mL: 137 NaCl, 4 KCl, 1 MgCl2, 1.8 CaCl2, 10 HEPES, and 10 glucose, pH 7.4, adjusted with NaOH), and dispensed into a patch clamp plate. The cell density was adjusted to 2–3 × 10^5 cells/mL. After dispensing, the cells were applied to the AutoPatch system (PatchXpress 7000A, Molecular Devices, Sunnyvale, CA, USA). The hERG currents were evoked by two voltage pulses at 3 s interval. The voltage pulse consisted of a 100-ms step to −30 mV, a conditioning prepulse (2 s duration, +25 mV or +45 mV), followed by a test pulse (2 s duration, −30 mV) from a holding potential of −70 mV. After a 3 s interval at −70 mV, a second pulse protocol was applied, consisting of a 100-ms step to −30 mV, a prepulse (2 s duration, +45 mV), followed by a test pulse (2 s duration, −30 mV). Leak currents were linearly subtracted, extrapolating the current elicited by a 100-ms step to −80 mV from a holding potential of −70 mV. The experiment was initiated with a buffer control in the absence of the drug to calculate the IC50. The test compound was applied at low to high concentrations, and the tail current was monitored continuously. The compound effects were tested using six concentrations in three-fold dilutions from 1 to 300 µM.

[2] = test system: A375, A549, MCF7 and PC3 cells; test: mRNA gene expression (transcriptome, DEG) analysis in four cell lines; format: cell-based, human; conditions: 10 μM, 6 h; common gene of four cell lines
Protocol: Transcriptome analysis was performed to identify new indications of KRX-104130. For each of the four cell lines, human skin malignant melanoma cells (A375), human lung carcinoma cells (A549), human breast carcinoma cells (MCF7), and human prostate adenocarcinoma cells (PC3), 10 μM of KRX-104130 was administered for 6 h in the control and treatment groups. As an independent experiment was performed three times, considering the error, the average value was used for comparison. The change in gene expression levels was calculated by dividing the […]. Fold change (FC) was expressed as a positive or negative value when the gene expression value of the treatment group was greater or lower than that of the control group, respectively.
Four cell lines were used for the cell culture: A375, A549, MCF7, and PC3, purchased from the American Type Culture Collection (ATCC, Rockville, MD, USA). The A375 and A549 cells were cultured in RPMI-1640 medium supplemented with 10% fetal bovine serum (FBS) and 1% penicillin-streptomycin-glutamine. The MCF7 cells were cultured in Dulbecco’s modified Eagle’s medium (DMEM) with 10% FBS and 1% penicillin-streptomycin-glutamine. The PC3 cells were cultured in RPMI with 10% FBS, 1% penicillin-streptomycin-glutamine, 1 mM sodium pyruvate, and 10 mM HEPES. KRX-104130 was synthesized at the Research Center for Medicinal Chemistry, Korea Research Institute of Chemical Technology (KRICT, Daejeon, Korea).
After releasing the stock, the cells were used in the experiments and cultured for two weeks to stabilize. KRX-104130 was dissolved in dimethylsulfoxide (DMSO) to form a 10 mM stock solution and stored in a deep freezer (−80 °C). Six sheets were seeded in each of the four cell lines, three sheets of DMSO and KRX-104130 (DMSO × 3 and KRX-104130 × 3), and they were stored in an incubator for 24 h. Cells were plated at 1.1375 × 10^6 cells for A375, 1.3 × 10^6 cells for A549, 8.45 × 10^5 cells for MCF7, and 1.496 × 10^6 cells for PC3 under the culture conditions. After 24 h, DMSO and KRX-104130 were diluted 1000-fold in the medium, and the cells were treated with a final concentration of 0.1% DMSO and 10 μM KRX-104130. After 6 h, the medium was removed, and the cells were collected by treatment with 1 mL of TRIzol. After destroying the cells by pipetting, they were stored in a deep freezer (−80 °C).
The total RNA samples were assessed using the Clariom™ S Assay Human Platform. cDNA was synthesized using the GeneChip WT (Whole Transcript) Amplification Kit as described by the manufacturer. The sense cDNA was then fragmented and biotin-labeled with terminal deoxynucleotidyl transferase (TdT) using the GeneChip WT Terminal labeling kit. Approximately 5.5 μg of labeled DNA target was hybridized to the Affymetrix GeneChip Array at 45 °C for 16 h. The hybridized arrays were washed and stained on a GeneChip Fluidics Station 450 and scanned using a GCS3000 scanner. Probe cell intensity data computation and CEL file generation were performed using Affymetrix® GeneChip Command Console® Software version 6.0+ (AGCC, www.thermofisher.com/kr/ko/home/life-science/microarray-analysis/microarray-analysis-instruments-software-services/microarray-analysis-software/affymetrix-genechip-command-console-software.html, accessed on 1 September 2021). The CEL file is a binary format that contains the intensity calculated result for the pixel values of the DAT file and is used to extract normalized intensity to be used for actual analysis in Affymetrix® Power Tools version 2.11.4 (APT, www.thermofisher.com/kr/en/home/life-science/microarray-analysis/microarray-analysis-partners-programs/affymetrix-developers-network/affymetrix-power-tools.html, accessed on 1 September 2021). […]

LDLR [3] = test: RT-qPCR analysis of LDLR mRNA expression in HepG2 cells; format: cell-based, human; conditions: HepG2 cells, 3, 10 and 30 μM, 24 h
Protocol: (§2) To validate that KRX-104130 increased the LDLR gene expression through the DEG analysis, LDLR mRNA expression was investigated in KRX-104130–treated HepG2 cells.
The mRNA expression levels of LDLR in the HepG2 cells were determined by real-time quantitative PCR (RT-qPCR) at the Cosmo Genetech (Sungsoo, Seoul, Korea). The total RNA was extracted from the cultured cells using an RNeasy mini kit (Qiagen, Valencia, CA, USA), and gene expression was analyzed by RT-qPCR using a Bio-Rad CFX96 system (Hercules, CA, USA). The mRNA expression levels were investigated three times in each sample treated with 0 μM, 3 μM, 10 μM, and 30 μM KRX-104130 for 24 h, and each result was obtained from three independent experiments, for 12 samples. For LDLR, the forward primer was 5′-CTCCCGCCAAGATCAAGAAA-3′, and the reverse primer was 5′-GAGATCTAGGGTGATGCCATTG-3′. The housekeeping gene, glyceraldehyde 3-phosphate dehydrogenase (GAPDH), was used as an internal control. The forward primer was 5′-TTGCCATCAATGACCCCTTCA-3′, and the reverse primer was 5′-CGC CCC ACT TGA TTT TGG A-3′. The PCR conditions for all genes were 40 cycles of pre-denaturation at 95 °C for 3 min, amplification at 62 °C for 30 s, and 95 °C for 10 s. The qPCR was performed using CFX manager (Version 3.1).

LDLR [4] = test: Western blot assay of LDLR protein expression in HepG2 cells; format: cell-based, human; conditions: HepG2 cells, 3, 10 and 30 μM
Protocol: as §2
The protein expression levels of LDLR in the HepG2 cells were determined by Western blot assay at Cosmo Genetech (Sungsoo, Seoul, Korea). Briefly, cell protein extracts were prepared using radioimmunoprecipitation assay buffer (Thermo Scientific, Pierce, Rockford, IL, USA). Twenty micrograms of protein lysate were separated by electrophoresis on a 10% sodium dodecyl-sulfate (SDS)-polyacrylamide gel electrophoresis (PAGE) gel (Bio-Rad, Hercules, CA, USA) and transferred to a nitrocellulose membrane (Hybond-C Extra; GE Healthcare, Piscataway, NJ, USA). Nonspecific binding was blocked with 5% milk and incubated with 1:1000 primary antibody (LDLR Rabbit-mAb, #ab52818, Abcam) overnight at 4 °C. The secondary antibodies (horseradish peroxidase [HRP]-conjugated mouse anti-rabbit IgG, #SC-2357, Santa Cruz) were diluted 1:3000 in a fresh blocking solution. Protein bands were detected using the SuperSignal West Femto Kit (Thermo Fisher Scientific Inc., Waltham, MA, USA).

[5] = test system: methionine-choline-deficient (MCD) diet induced NASH mouse model; test: MCD diet-induced NASH mouse model; format: in vivo, C57BL/6 mice; conditions: 30 mg/kg once-daily oral, 4 weeks
Protocol: In addition, the MCD diet-induced histopathological changes, such as steatosis and fibrosis in liver tissues, were ameliorated by treatment with KRX-104130 (Figure 8D).
Animal studies were carried out following the guidelines for animal care approved by the Institutional Animal Care and Use Committee at the Korea Research Institute of Chemical Technology (approval number: 2020-6A-10-01). Nine-week-old male C57BL/6 mice (Orient Bio, Sungnam, Korea) were randomly divided into three groups: a control group that was fed MCS diet, the NASH model group, and the treatment group that was fed an MCD diet with once-daily oral administration of vehicle (0.5% carboxymethyl cellulose) or 30 mg/kg KRX-104130. After 4 weeks of feeding, the mice were fasted overnight, and blood and tissue samples were obtained for biochemical and histological analyses. Liver TG levels and serum concentrations of liver injury markers, including ALT and AST, were determined using a colorimetric kit (MAK266, Sigma-Aldrich, St. Louis, MO, USA) or biochemical analyzer (AU480, Beckman Coulter, Atlanta, GA, USA), respectively, according to the manufacturer’s instructions. The left lobe of the liver was fixed in 10% neutralized buffered formalin and embedded in paraffin. Histological examination was performed using hematoxylin and eosin (H&E) and picrosirius red staining of 5 µm-thick sections.

[6] = Plasma pharmacokinetic profile in mice (I.V. and P.O.); conditions: for Tolerability / death after administration to mice: pharmacokinetic study; for AUC(0-t): AUC0–t, n=3; for Tolerability / death after administration to mice / AUC(0-t): mice

SMILES: COc1nc2cc(F)c(F)cc2nc1NC(=O)NC1CCN(Cc2cc3ccccc3[nH]2)CC1 [KRX-104130]
inhibition at 10 µM [1]: 97.1%
IC50 [1]: 20 nM
IC50 (hERG channel): 13000 nM
Fold change (FC) CCNE2 [2]: −1.96
Fold change (FC) DNAJB9 [2]: 3.50
Fold change (FC) HERPUD1 [2]: 3.17
Fold change (FC) HSD17B7 [2]: 2.22
Fold change (FC) INSIG1 [2]: 2.85
Fold change (FC) LDLR [2]: 2.79
Fold change (FC) MSMO1 [2]: 3.09
Fold change (FC) TIPARP [2]: 3.98
LDLR mRNA expression level (LDLR [3]): LDLR upregulation in a concentration-dependent manner
LDLR protein level (LDLR [4]): increased in a concentration-dependent manner
MCD diet-induced histopathological changes (steatosis and fibrosis in liver tissues) ([5]; H&E and picrosirius red): ameliorated
Liver TG levels ([5]; mean ± S.E.M.): 29.73 ± 1.54
Serum ALT ([5]; mean ± S.E.M.): 163.67 ± 25.85
Serum AST ([5]; mean ± S.E.M.): 170.5 ± 27.27
Tolerability / death after administration to mice [6]: without specific abnormalities
Vd ([6]; mouse, plasma, iv, 10 mg/kg): 14.2 ± 0.72 L/kg
clearance ([6]; mouse, plasma, iv, 10 mg/kg): 36.8 mL/min/kg
half-life ([6]; mouse, plasma, iv, 10 mg/kg): 5.71 ± 1.03 h
AUC(0-t) ([6]; mouse, plasma, iv, 10 mg/kg, I.V.): 4550 ± 220 ng·h/mL
bioavailability ([6]; mouse, plasma, oral, 20 mg/kg): 20.3%
Cmax ([6]; mouse, plasma, po, 20 mg/kg): 130 ± 50 ng/mL
Tmax ([6]; mouse, plasma, po, 20 mg/kg): 6.67 ± 2.31 h
half-life ([6]; mouse, plasma, po, 20 mg/kg): 10.2 h
AUC(0-t) ([6]; mouse, plasma, po, 20 mg/kg, P.O.): 1720 ± 850 ng·h/mL

SMILES: COc1nc2cc(F)c(F)cc2nc1NC(=O)NC1CCN(Cc2cn(C(C)=O)c3ccccc23)CC1 [KRX-104165]
inhibition at 10 µM [1]: 94.3%
IC50 [1]: 60 nM
IC50 (hERG channel): > 50000 nM
Tolerability / death after administration to mice [6]: the mouse died immediately after administration

Second part, led by results:

inhibition at 10 µM [1]: 96%
IC50 [1]: 10 nM
SMILES: CCN(CC)CCN(C)c1cnc2cc(NC(=O)c3ccc(-c4ccc(Cl)cc4)cc3)ccc2n1 [KRX-104137]
IC50 (hERG channel): 420 nM

inhibition at 10 µM [1]: 94.8%
IC50 [1]: 10 nM
SMILES: COc1nc2cc(F)c(F)cc2nc1NC(=O)NC1CCN(Cc2ccc3[nH]ncc3c2)CC1 [KRX-104161]
IC50 (hERG channel): 180 nM

inhibition at 10 µM [1]: 100%
IC50 [1]: 50 nM
SMILES: COc1nc2cc(F)c(F)cc2nc1NC(=O)NC1CCN(Cc2ccc3[nH]ccc3c2)CC1 [KRX-104156]
IC50 (hERG channel): 920 nM
